Results: patent US20200378993A1, “MEDICAL USES OF APOLIPOPROTEIN A AND ACTIVATORS THEREOF” (FUNDACIÓN IMDEA ALIMENTACIÓN, priority 2017, published 2020)

How the values were obtained:
Assay type in all cases: cell-based, human
cholesterol flux = test: Cholesterol flux in treated cells; details: treatment with Rvx-208
Experimental: (§1) FIG. 7. A) Proliferation curve in a viability assay carried out by means of XCELLigence technology. Growth of DLD1 cells treated with DMSO as the drug carrier and with Rvx-208 (30 μM). The significant differences existing in the slope of the graph, and therefore in the growth dynamics of the treated cells are shown in the right panel (****p-value<0.0001). B) Migration and invasion assays. The method followed was the same as the one described in FIG. 2 (*p-value=0.0407; ****p-value<0.0001). C) Expression levels of proteins E-cadherin and Vimentin in the presence and absence of Rvx-208. Analysis performed by means of quantitative PCR. The relative expression levels normalized with respect to the untreated control are shown. D) ABCA1, ApoA1, caveolin-1, and α-tubulin immunodetection by means of Western blot. α-tubulin acts as load control. The results of the cells treated with Rvx-208 (30 μM) or with the DMSO carrier are shown. E) Cholesterol flux in cells treated with Rvx-208. The inventors were able to confirm said results based on the treatment of DLD1 cells expressing ABCA1 with RVX-208 under the conditions already described in detail in Example 3. […] The levels of caveolin-1, a protein whose increased levels have been associated with increases in cell migration and invasion, were also analyzed in this experiment.

DLD1 cells = test: Cell viability and proliferation assay (XCELLigence)
Experimental: (§2) Cell viability and proliferation assays were carried out by means of XCELLigence technology (ACEA Biosciences, Inc.) following the manufacturer's indications. Migration and invasion assays were carried out in Corning® BioCoat™ Control plates (#354578) and Corning® BioCoat™ Matrigel plates (#354480), respectively, following the manufacturer's indications. For the rescue assays, the cells were treated for 72 hours with 30 μM apabetalone (RVX-208; Biovision). Antibodies: ABCA1 (Ab18180, Abcam. 1:500); caveolin-1 (Ab2910, Abcam. 1:1000); α-tubulin (T9026, Sigma 1:1000). The DLD1 cells correspond to a human colorectal cancer-derived adherent epithelial cell line (ATCC® CCL-221™). The stable cell lines capable of overexpressing ABCA1 were obtained by means of transduction with genetically modified lentivirus.
Following the same treatment regimen, the inventors carried out migration and invasion assays.
The same assays were repeated by replacing ApoA1 with a treatment with RVX-208. In this case, DLD1 cells were pre-treated for 72 hours before the start of the experiment with RVX-208 at a concentration of 30 μm and were subjected to a treatment with 15 μM of RVX-208 during the development of the experiments.
(§3) For the purpose of confirming that the effects of RVX-208 in cell phenotype recovery were due to the increase in ApoA-1 expression, the inventors inhibited the expression of said protein by means of transfection of a complementary small RNA, ShApoA1 (FIG. 9). Twenty-four hours after transfection with ShApoA1 expression vector, the inventors started treatment with 30 μM of RVX-208. Cell viability and proliferation in DLD1 cells (D_NoORF) and D1D1 cell lines expressing increased ApoA1 levels (D_ApoA1 ) were analyzed with the xCELLigence system.

[1] = tested on: ABCA1 cholesterol transporter; test: ABCA1 messenger RNA and protein level after treatment; details: treatment with Rvx-208 (30 μM); Western blot
Experimental: (§4) FIG. 6. A) Proliferation curve in a viability assay carried out by means of XCELLigence technology. The results for the stable cell line overexpressing ABCA1 in the absence and presence of ApoA1 are shown. The cells were treated for 72 hours before the experiment with 40 μg/ml of ApoA1 and with a concentration of 20 μg/ml during acquisition. B) Migration and invasion assays. The method followed was the same as the one described in FIG. 1. (**p-value=0.003; ****p-value<0.0001). C) ABCA1 messenger RNA level (left panel) and ABCA1 protein level (right panel) in the presence and absence of treatment with ApoA1. Results are shown both for the control cells and for those cells overexpressing the transporter.
FIG. 7. A) Proliferation curve in a viability assay carried out by means of XCELLigence technology. Growth of DLD1 cells treated with DMSO as the drug carrier and with Rvx-208 (30 μM). The significant differences existing in the slope of the graph, and therefore in the growth dynamics of the treated cells are shown in the right panel (****p-value<0.0001). B) Migration and invasion assays. The method followed was the same as the one described in FIG. 2 (*p-value=0.0407; ****p-value<0.0001). C) Expression levels of proteins E-cadherin and Vimentin in the presence and absence of Rvx-208. Analysis performed by means of quantitative PCR. The relative expression levels normalized with respect to the untreated control are shown. D) ABCA1, ApoA1, caveolin-1, and α-tubulin immunodetection by means of Western blot. α-tubulin acts as load control. The results of the cells treated with Rvx-208 (30 μM) or with the DMSO carrier are shown. E) Cholesterol flux in cells treated with Rvx-208.
as §2, with “The stable cell lines capable of overexpressing ABCA1 were obtained by means of transduction with genetically modified lentivirus.” left out
(§5) The inventors were able to confirm said results based on the treatment of DLD1 cells expressing ABCA1 with RVX-208 under the conditions already described in detail in Example 3. […] The levels of caveolin-1, a protein whose increased levels have been associated with increases in cell migration and invasion, were also analyzed in this experiment.

DLD1_ABCA1 cells = test: Invasion assay (Corning BioCoat Matrigel plates); details: Rvx-208 with ApoA1 silenced by shApoA1; cells with high ABCA1 levels
Experimental: as §4, with “Results are shown both for the control cells and for those cells overexpressing the transporter.” left out
as §5
as §3, with “Twenty-four hours after transfection with ShApoA1 expression vector, the inventors started treatment with 30 μM of RVX-208.” left out

apolipoprotein A1 = test: ApoA1 immunodetection by Western blot; details: RVX-208 (30 μM) versus DMSO carrier
Experimental: as §1

## COc1cc(OC)c2c(=O)[nH]c(-c3cc(C)c(OCCO)c(C)c3)nc2c1 [RVX-208, 2-(4-(2-hydroxyethoxy)-3,5-dimethylphenyl)-5,7-dimethoxyquinazolin-4(3H)-one]
Cholesterol flux; cells overexpressing ABCA1
  cholesterol flux: decreases significantly
Cholesterol flux; control cells
  cholesterol flux: decreases significantly
DLD1 cells; 30 μM RVX-208, ApoA1 expression not inhibited (Scr+Rvx-208), DLD1 cells (D_NoORF)
  proliferation indices: significantly lower
DLD1 cells; RVX-208 pre-treatment 72 hours at 30 μm, 15 μM during experiment, DLD1 cells
  proliferative capacity: significant decrease in proliferative capacity
[1]
  ABCA1 expression levels: reduces ABCA1 expression levels
DLD1_ABCA1 cells
  effectiveness of treatment in terms of a decrease in cell invasion capacities: reduces the effectiveness of treatment
Apolipoprotein A1
  apolipoprotein A1 expression levels: increase in apolipoprotein A1 expression levels
